Source: ChEMBL document CHEMBL5380791, “Modular Biomimetic Strategy Enabled Discovery of Simplified Pseudo-Natural Macrocyclic P-Glycoprotein Inhibitors Capable of Overcoming Multidrug Resistance” (J Med Chem, 2023)
Calls of active or inactive are those of the source. No cut-off for these calls is given here.

How the values were obtained:
KBv200 [1] = assay: Reversal of vinorelbine resistance in human KBv200 cells assessed as reduction in cell viability incubated for 72 hrs in presence of vinorelbine (reference value: 224 to 228.30 nM); format: functional, cell-based; settings: KBv200, 72 h, read-out: IC50
KBv200 [2] = assay: Reversal fold, ratio of vinorelbine IC50 for cytotoxicity against human KBv200 cells over test compound IC50 for reversal of vinorelbine resistance in human KBv200 cells; format: functional
KBv200 [3] = assay: Reversal of paclitaxel resistance in human KBv200 cells assessed as reduction in cell viability incubated for 72 hrs in presence of paclitaxel (reference value: 392.9+/-196.5 nM); format: functional, cell-based; settings: KBv200, 72 h
KBv200 [4] = assay: Reversal of adriamycin resistance in human KBv200 cells assessed as reduction in cell viability incubated for 72 hrs in presence of adriamycin (reference value: 1291.2+/-308.9 nM); format: functional, cell-based; settings: KBv200, 72 h
KB = assay: Reversal of vinorelbine resistance in human KB cells assessed as reduction in cell viability incubated for 72 hrs in presence of vinorelbine (reference value: 7.4+/-2.2 nM); format: functional, cell-based
K562/Adr = assay: Reversal of vinorelbine resistance in human K562/Adr cells assessed as reduction in cell viability incubated for 72 hrs in presence of vinorelbine (reference value: 7320.6+/-2115.2 nM); format: functional, cell-based
K562 = assay: Reversal of vinorelbine resistance in human K562 cells assessed as reduction in cell viability incubated for 72 hrs in presence of vinorelbine (reference value: 5.9+/-0.2 nM); format: functional, cell-based; settings: K562, 72 h
NCI/ADR-RES = assay: Reversal of vinorelbine resistance in human NCI/ADR-RES cells assessed as reduction in cell viability incubated for 72 hrs in presence of vinorelbine (reference value: 6125.7+/-3267.7 nM); format: functional, cell-based
OVCAR-8 = assay: Reversal of vinorelbine resistance in human OVCAR-8 cells assessed as reduction in cell viability incubated for 72 hrs in presence of vinorelbine (reference value: 16.2+/-4.7 nM); format: functional, cell-based; settings: OVCAR-8, 72 h
[5] = Cytotoxicity against human HEK293T cells assessed as reduction in cell viability incubated for 48 hrs by CCK-8 assay; format: toxicity, cell-based, HEK-293T
[6] = Cytotoxicity against human L02 cells assessed as reduction in cell viability incubated for 48 hrs by CCK-8 assay; format: toxicity, cell-based
[7] = Half life in CD-1 mouse at 30 mg/kg, po; format: ADME, organism-based; settings: in vivo
[8] = Tmax in CD-1 mouse at 30 mg/kg, po; format: ADME, organism-based; settings: in vivo
[9] = Cmax in CD-1 mouse at 30 mg/kg, po; format: ADME, organism-based; design: dose 30 mg/kg, route po; settings: in vivo
[10] = AUClast in CD-1 mouse at 30 mg/kg, po; format: ADME, organism-based; design: dose 30 mg/kg, route po; settings: in vivo
[11] = AUCinf in CD-1 mouse at 30 mg/kg, po; format: ADME, organism-based; design: dose 30 mg/kg, route po; settings: in vivo
[12] = Clearance in CD-1 mouse at 3 mg/kg, iv; format: ADME, organism-based; settings: in vivo
[13] = Oral bioavailability in CD-1 mouse at 30 mg/kg; format: ADME, organism-based; settings: in vivo
[14] = Half life in CD-1 mouse at 25 mg/kg, ip; format: ADME, organism-based; settings: in vivo
[15] = Half life in CD-1 mouse at 3 mg/kg, iv; format: ADME, organism-based; settings: in vivo
[16] = Tmax in CD-1 mouse at 25 mg/kg, ip; format: ADME, organism-based; settings: in vivo
[17] = Cmax in CD-1 mouse at 25 mg/kg, ip; format: ADME, organism-based; design: dose 25 mg/kg, route ip; settings: in vivo
[18] = AUClast in CD-1 mouse at 25 mg/kg, ip; format: ADME, organism-based; design: dose 25 mg/kg, route ip; settings: in vivo
[19] = AUClast in CD-1 mouse at 3 mg/kg, iv; format: ADME, organism-based; design: dose 3 mg/kg, route iv; settings: in vivo
[20] = AUCinf in CD-1 mouse at 25 mg/kg, ip; format: ADME, organism-based; design: dose 25 mg/kg, route ip; settings: in vivo
[21] = AUCinf in CD-1 mouse at 3 mg/kg, iv; format: ADME, organism-based; design: dose 3 mg/kg, route iv; settings: in vivo
[22] = Bioavailability in CD-1 mouse at 25 mg/kg, ip; format: ADME, organism-based; settings: in vivo
KBv200 [23] = assay: Antitumor activity against human KBv200 cells xenografted in Balb/cA nude mouse assessed as mean tumor volume at 75 mg/kg, ip administered as single dose and measured on day 0; format: functional
KBv200 [24] = assay: Antitumor activity against human KBv200 cells xenografted in Balb/cA nude mouse assessed as mean tumor volume at 75 mg/kg, ip qd administered for 13 days; format: functional; settings: time 13 day
KBv200 [25] = assay: Antitumor activity against human KBv200 cells xenografted in Balb/cA nude mouse assessed as T/C ratio at 75 mg/kg, ip qd administered for 13 days; format: functional; settings: time 13 day
KBv200 [26] = assay: Antitumor activity against human KBv200 cells xenografted in Balb/cA nude mouse assessed as tumor growth inhibition at 75 mg/kg, ip qd administered for 13 days; format: functional; settings: KBv200, 312 h, time 13 day
[27] = Toxicity in Balb/cA nude mouse xenografted with human KBv200 cells assessed as changes in body weight at 75 mg/kg, ip qd administered for 13 days; format: organism-based; settings: in vivo, 312 h, time 13 day
[28] = Toxicity in Balb/cA nude mouse xenografted with human KBv200 cells assessed as mortality at 75 mg/kg, ip qd administered for 13 days; format: organism-based; settings: in vivo, 312 h, time 13 day
[29] = Toxicity in Balb/cA nude mouse xenografted with human KBv200 cells assessed as changes in body weight at 75 mg/kg, ip qd administered for 13 days in presence of vinorelbine; format: organism-based; settings: in vivo, 312 h, time 13 day
[30] = Toxicity in Balb/cA nude mouse xenografted with human KBv200 cells assessed as mortality at 75 mg/kg, ip qd administered for 13 days in presence of vinorelbine; format: organism-based; settings: in vivo, 312 h, time 13 day
KBv200 [31] = assay: Antitumor activity against human KBv200 cells xenografted in Balb/cA nude mouse assessed as mean tumor volume at 75 mg/kg, ip administered as single dose and measured on day 0 in presence of vinorelbine; format: functional
KBv200 [32] = assay: Antitumor activity against human KBv200 cells xenografted in Balb/cA nude mouse assessed as mean tumor volume at 75 mg/kg, ip qd administered for 13 days in presence of vinorelbine; format: functional; settings: time 13 day
KBv200 [33] = assay: Antitumor activity against human KBv200 cells xenografted in Balb/cA nude mouse assessed as T/C ratio at 75 mg/kg, ip qd administered for 13 days in presence of vinorelbine; format: functional; settings: time 13 day
KBv200 [34] = assay: Antitumor activity against human KBv200 cells xenografted in Balb/cA nude mouse assessed as tumor growth inhibition at 75 mg/kg, ip qd administered for 13 days in presence of vinorelbine; format: functional; settings: KBv200, 312 h, time 13 day
KBv200 [35] = assay: Downregulation of P-gp mRNA expression level in human KBV200 cells by qRT-PCR analysis; format: functional, cell-based
[36] = molecular target: ATP-dependent translocase ABCB1 (Homo sapiens, UniProt P08183); assay: Inhibition of P-gp in human KBv200 cells assessed as induction of conformation change by measuring increase in UIC-2 binding level at 50 uM incubated for 10 mins by UIC-2 reactivity shift assay; format: cell-based; settings: kbv200, 10 min
ATP-dependent translocase ABCB1, sequence (P08183 whole entry): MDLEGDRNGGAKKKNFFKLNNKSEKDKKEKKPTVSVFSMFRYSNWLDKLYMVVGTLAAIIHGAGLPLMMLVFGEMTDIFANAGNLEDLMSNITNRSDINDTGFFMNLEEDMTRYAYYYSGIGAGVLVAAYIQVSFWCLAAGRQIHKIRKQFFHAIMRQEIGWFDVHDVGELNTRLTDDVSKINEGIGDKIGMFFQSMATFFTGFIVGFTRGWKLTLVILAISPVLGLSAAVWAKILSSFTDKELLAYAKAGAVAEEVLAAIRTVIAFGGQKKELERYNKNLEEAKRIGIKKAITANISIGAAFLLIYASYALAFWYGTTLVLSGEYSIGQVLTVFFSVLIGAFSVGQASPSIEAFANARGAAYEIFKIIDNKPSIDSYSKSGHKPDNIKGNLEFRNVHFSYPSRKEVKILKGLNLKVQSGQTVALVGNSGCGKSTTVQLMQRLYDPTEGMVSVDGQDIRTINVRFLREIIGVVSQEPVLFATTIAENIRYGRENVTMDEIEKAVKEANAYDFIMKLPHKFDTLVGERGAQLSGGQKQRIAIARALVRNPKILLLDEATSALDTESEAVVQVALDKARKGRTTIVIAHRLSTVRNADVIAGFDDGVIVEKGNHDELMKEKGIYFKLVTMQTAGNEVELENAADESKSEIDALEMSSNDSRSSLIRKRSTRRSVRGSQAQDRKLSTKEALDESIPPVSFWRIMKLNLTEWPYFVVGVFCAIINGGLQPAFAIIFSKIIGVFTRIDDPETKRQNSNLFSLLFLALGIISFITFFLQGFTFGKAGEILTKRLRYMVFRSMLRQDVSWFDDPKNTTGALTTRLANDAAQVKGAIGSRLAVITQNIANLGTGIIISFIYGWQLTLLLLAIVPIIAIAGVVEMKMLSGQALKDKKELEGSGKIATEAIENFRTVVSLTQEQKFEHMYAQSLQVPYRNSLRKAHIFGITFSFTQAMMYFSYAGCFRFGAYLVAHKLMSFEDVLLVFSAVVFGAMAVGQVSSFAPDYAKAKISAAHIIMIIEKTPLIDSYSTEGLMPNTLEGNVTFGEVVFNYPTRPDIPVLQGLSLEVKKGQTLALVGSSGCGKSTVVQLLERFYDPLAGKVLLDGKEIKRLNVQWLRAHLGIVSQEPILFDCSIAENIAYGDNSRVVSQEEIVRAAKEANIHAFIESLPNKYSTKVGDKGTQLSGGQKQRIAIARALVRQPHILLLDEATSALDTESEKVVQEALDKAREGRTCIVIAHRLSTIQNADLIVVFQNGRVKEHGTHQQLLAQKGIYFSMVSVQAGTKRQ

KBv200 [37] = assay: Induction of apoptosis in human KBv200 cells assessed as increase in cleaved PARP level at 5 uM incubated for 24 hrs in presence of vinorelbine by Western blotting analysis; format: functional, cell-based
KBv200 [38] = assay: Induction of apoptosis in human KBv200 cells assessed as increase in cleaved caspase 3 level at 5 uM incubated for 24 hrs in presence of vinorelbine by Western blotting analysis; format: functional, cell-based
KBv200 [39] = assay: Induction of apoptosis in human KBv200 cells assessed as increase in cleaved caspase 9 level at 5 uM incubated for 24 hrs in presence of vinorelbine by Western blotting analysis; format: functional, cell-based
KBv200 [40] = assay: Induction of apoptosis in human KBv200 cells assessed as increase in cleaved PARP level at 5 uM incubated for 24 hrs by Western blotting analysis; format: functional, cell-based
KBv200 [41] = assay: Induction of apoptosis in human KBv200 cells assessed as increase in cleaved caspase 3 level at 5 uM incubated for 24 hrs by Western blotting analysis; format: functional, cell-based
KBv200 [42] = assay: Induction of apoptosis in human KBv200 cells assessed as increase in cleaved caspase 9 level at 5 uM incubated for 24 hrs by Western blotting analysis; format: functional, cell-based

CC(C)[C@H]1NC(=O)/C(c2ccccc2)=C\C=C(\c2ccccc2)CNC(=O)CCCCCCCCCCCNC1=O
IC50 (KBv200 [1]): 0.74 nM | Ratio IC50 (KBv200 [2]): 386 | IC50 (KBv200 [3]): 8 nM | IC50 (KBv200 [4]): 107 nM | IC50 (KB): 2.2 nM | IC50 (K562/Adr): 1210 nM | IC50 (K562): 1.4 nM | IC50 (NCI/ADR-RES): 619 nM | IC50 (OVCAR-8): 6.8 nM | IC50 at 48 h [5]: > 100000 nM | IC50 at 48 h [6]: > 100000 nM | half-life [7]: 1.24 h | Tmax [8]: 0.25 h | Cmax [9]: 1380 ng/mL | AUC(0-t) [10]: 2190 ng·h/mL | AUC(0-inf) [11]: 2200 ng·h/mL | clearance [12]: 58.2 mL/min/kg | bioavailability [13]: 24.7% | half-life [14]: 11.2 h | half-life [15]: 1.23 h | Tmax [16]: 7.2 min | Cmax [17]: 2390 ng/mL | AUC(0-t) [18]: 4400 ng·h/mL | AUC(0-t) [19]: 887 ng·h/mL | AUC(0-inf) [20]: 5100 ng·h/mL | AUC(0-inf) [21]: 888 ng·h/mL | bioavailability [22]: 59.5% | Activity (KBv200 [23]): 121 mm3 | Activity (KBv200 [24]): 2318.6 mm3 | T/C (KBv200 [25]): 113% | inhibition in vivo at 75 mg/kg (KBv200 [26]): -13% | Activity [27]: Non-Toxic | Activity [28]: Non-Toxic | Activity [29]: Non-Toxic | Activity [30]: Non-Toxic | Activity (KBv200 [31]): 121.5 mm3 | Activity (KBv200 [32]): 1132.6 mm3 | T/C (KBv200 [33]): 52% | inhibition in vivo at 75 mg/kg (KBv200 [34]): 48% | Activity (KBv200 [35]): inactive | Activity [36]: Active | Activity (KBv200 [37]): Active | Activity (KBv200 [38]): Active | Activity (KBv200 [39]): Active | Activity (KBv200 [40]): inactive | Activity (KBv200 [41]): inactive | Activity (KBv200 [42]): inactive
